The values that follow come from ChEMBL document CHEMBL1130408, “Repromicin derivatives with potent antibacterial activity against Pasteurella multocida” (1997).

Common to all, as to type: functional
For experiment [1], the species on record is Mus musculus. Nature of the experiment: Protected dose which protects 50% of challenged mice from death owing to the Pasteurella multocida (59A006) infection. The following applies: read-out: PD50.
Experiment [2] concerns Pasteurella multocida. Nature of the experiment: Minimum inhibitory concentration required to inhibit Pasteurella multocida 59A006 in vitro.
For experiment [3], the species on record is Mus musculus. Nature of the experiment: Protected dose at which the test compound protects 50% of challenged mice from death owing to the Pasteurella multocida infection. To be noted: read-out: PD50.

Values after ≈ are worked out from the molar mass of the structure shown.

In the case of `CC[C@H]1OC(=O)CC(O)[C@H](C)[C@@H](O[C@@H]2O[C@H](C)C[C@H](N(C)C)[C@H]2O)[C@@H](CCNCC(C)(C)CO)C[C@@H](C)C(=O)/C=C/C(C)=C/[C@@H]1C` (stereo partly drawn), in experiment [1], the ED50 came out at 26 mg/kg. Also, inhibition of growth in experiment [2] (MIC) required 0.05 µg/mL (≈ 0.0766 µM).
For `CC[C@H]1OC(=O)CC(O)[C@H](C)[C@@H](O[C@@H]2O[C@H](C)C[C@H](N(C)C)[C@H]2O)[C@@H](CCN(CCO)CCO)C[C@@H](C)C(=O)/C=C/C(C)=C/[C@@H]1C` (stereo partly drawn) the same measures were 41 mg/kg and 0.2 µg/mL (≈ 0.305 µM).
In the case of `CC[C@H]1OC(=O)C[C@@H](O)[C@H](C)[C@@H](O[C@@H]2O[C@H](C)[C@@H](O)[C@@H](N(C)C)[C@H]2O)[C@@H](CC=O)C[C@@H](C)C(=O)/C=C/C(C)=C/[C@@H]1CO[C@@H]1O[C@H](C)[C@@H](O)[C@@H](OC)[C@H]1OC`, the ED50 in experiment [3] amounted to 66 mg/kg. Further, in experiment [2], the MIC amounted to 3.13 µg/mL (≈ 4.05 µM).
As to `CC[C@H]1OC(=O)CC(O)[C@H](C)[C@@H](O[C@@H]2O[C@H](C)C[C@H](N(C)C)[C@H]2O)[C@@H](CCNCCN(C)C)C[C@@H](C)C(=O)/C=C/C(C)=C/[C@@H]1C` (stereo partly drawn), the ED50 in experiment [1] came out at 100 mg/kg. Also, the MIC in experiment [2] is 0.2 µg/mL (≈ 0.314 µM).
Regarding `CC[C@H]1OC(=O)[C@H](C)[C@@H](O[C@H]2C[C@@](C)(OC)[C@@H](O)[C@H](C)O2)[C@H](C)[C@@H](O[C@@H]2O[C@H](C)C[C@H](N(C)C)[C@H]2O)[C@](C)(O)C[C@@H](C)CN(C)[C@H](C)[C@@H](O)[C@]1(C)O` [AZITHROMYCIN], in experiment [3], the ED50 worked out at 16 mg/kg. This compound also displayed an MIC in experiment [2] of 0.05 µg/mL (≈ 0.0668 µM).
`CO[C@@H]1[C@@H](O[C@@H]2O[C@H](C)[C@@H](O[C@H]3C[C@@](C)(O)[C@@H](OC(=O)CC(C)C)[C@H](C)O3)[C@H](N(C)C)[C@H]2O)[C@@H](CC=O)C[C@@H](C)C(=O)/C=C/[C@@H]2O[C@H]2C[C@@H](C)OC(=O)C[C@H]1OC(C)=O` [CARBOMYCIN A]: in experiment [1], the ED50 was greater than 150 mg/kg. The compound also gave a minimal inhibitory concentration (MIC) in experiment [2] of 1.56 µg/mL (≈ 1.85 µM).
With `CC[C@H]1OC(=O)C[C@@H](O)[C@H](C)[C@@H](O[C@@H]2O[C@H](C)C[C@H](N(C)C)[C@H]2O)[C@@H](CC=O)C[C@@H](C)C(=O)/C=C/[C@]2(C)O[C@H]2[C@@H]1C` [ROSARAMICIN], the ED50 in experiment [1] turned out to be 68 mg/kg. The compound also showed a minimal inhibitory concentration (MIC) in experiment [2] of 0.2 µg/mL (≈ 0.344 µM).
As for `CC[C@H]1OC(=O)C[C@@H](O)[C@H](C)[C@@H](O[C@@H]2O[C@H](C)[C@@H](O)[C@H](N(C)C)[C@H]2O)[C@@H](CCN2C[C@H](C)C[C@H](C)C2)C[C@@H](C)C(=O)/C=C/C(C)=C/[C@@H]1CO[C@@H]1O[C@H](C)[C@@H](O)[C@@H](OC)[C@H]1OC` [TILMICOSIN], the ED50 in experiment [3] worked out at 99 mg/kg. For the same compound, inhibition of growth in experiment [2] (MIC) required 1.56 µg/mL (≈ 1.79 µM).
For the compound `CC[C@H]1OC(=O)C[C@@H](O)[C@H](C)[C@@H](O[C@@H]2O[C@H](C)[C@@H](O[C@H]3C[C@@](C)(O)[C@@H](O)[C@H](C)O3)[C@H](N(C)C)[C@H]2O)[C@@H](CC=O)C[C@@H](C)C(=O)/C=C/C(C)=C/[C@@H]1CO[C@@H]1O[C@H](C)[C@@H](O)[C@@H](OC)[C@H]1OC` [TYLOSIN], the ED50 in experiment [1] is 86 mg/kg. The minimum inhibitory concentration (MIC) in experiment [2] was 25 µg/mL (≈ 27.3 µM).
